Publication PMC7582770, “Synthesis of “All-Cis” Trihydroxypiperidines from a Carbohydrate-Derived Ketone: Hints for the Design of New β-Gal and GCase Inhibitors” (Molecules, 2020)
Residue numbers refer to the chain shown, from its start. Read-outs that look alike come from different tables or passages of the source. Marks after values point to notes of the source that are not given here.

Experiments:
[1] = system: mutant β-Gal in GM1-gangliosidosis patient fibroblasts; conditions: cited from earlier work
human lysosomal β-Gal = conditions: cited from earlier work
[2] = target: T1, human lysosomal β-galactosidase (β-Gal) (Homo sapiens, UniProt P16278); assay: β-Gal inhibition in human leukocyte homogenates; format: biochemical; conditions: compounds 1 mM; human leukocytes extracts
T1 construct: in leukocytes isolated from healthy donors (controls); endogenous in cells; host or cells: human leukocytes from healthy donors, disrupted by sonication (crude homogenate)
T1 sequence (P16278 29-677): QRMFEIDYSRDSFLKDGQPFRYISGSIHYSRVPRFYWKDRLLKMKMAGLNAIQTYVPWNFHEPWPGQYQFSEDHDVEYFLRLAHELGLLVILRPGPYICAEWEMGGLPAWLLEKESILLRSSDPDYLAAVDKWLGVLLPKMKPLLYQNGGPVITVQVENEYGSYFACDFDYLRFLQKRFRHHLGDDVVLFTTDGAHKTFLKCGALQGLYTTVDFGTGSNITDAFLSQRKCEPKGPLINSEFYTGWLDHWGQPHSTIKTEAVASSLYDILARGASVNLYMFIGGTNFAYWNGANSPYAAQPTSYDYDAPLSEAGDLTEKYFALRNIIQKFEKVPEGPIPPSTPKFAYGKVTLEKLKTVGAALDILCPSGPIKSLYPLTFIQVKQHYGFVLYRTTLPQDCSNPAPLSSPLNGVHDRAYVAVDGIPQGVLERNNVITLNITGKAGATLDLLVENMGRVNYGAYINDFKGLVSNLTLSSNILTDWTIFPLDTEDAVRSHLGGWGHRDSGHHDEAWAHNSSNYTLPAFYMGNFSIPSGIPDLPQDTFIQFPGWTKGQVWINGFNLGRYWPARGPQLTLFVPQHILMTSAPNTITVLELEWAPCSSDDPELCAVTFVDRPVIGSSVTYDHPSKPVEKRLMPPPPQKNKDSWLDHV
Experimental: (§1) The new compounds were screened at 1 mM concentration towards β-galactosidase (β-Gal) and β-glucosidase (GCase) in leukocytes isolated from healthy donors (controls). Isolated leukocytes were disrupted by sonication, and a Micro BCA Protein Assay Kit (Sigma–Aldrich, St. Louis, MO, USA) was used to determine the total protein amount for the enzymatic assay, according to the manufacturer’s instructions.
β-Gal activity was measured in a flat-bottomed 96-well plate. Azasugar solution (3 μL), 4.29 μg/μL leukocytes homogenate 1:10 (7 μL), and substrate 4-methylumbelliferyl β-D-galactopyranoside (1.47 mM, 20 μL, Sigma–Aldrich) in acetate buffer (0.1 M, pH 4.3) containing NaCl (0.1 M) and sodium azide (0.02%) were incubated at 37 °C for 1 h. The reaction was stopped by addition of sodium carbonate (200 μL; 0.5 M, pH 10.7) containing Triton X-100 (0.0025%), and the fluorescence 4-methylumbelliferone released by β-galactosidase activity was measured in SpectraMax M2 Microplate Reader (λex = 365 nm and λem = 435 nm; Molecular Devices LLC, San Jose, CA, US). Inhibition is given with respect to the control (without azasugar). Data are mean SD (n = 3).

[3] = target: T2, human lysosomal β-glucosidase (GCase) (Homo sapiens, UniProt P04062); assay: GCase inhibition in human leukocyte homogenates; format: biochemical; conditions: compounds 1 mM; human leukocytes extracts
T2 construct: in leukocytes isolated from healthy donors (controls); endogenous in cells; host or cells: human leukocytes from healthy donors, disrupted by sonication (crude homogenate)
T2 sequence (P04062 40-536): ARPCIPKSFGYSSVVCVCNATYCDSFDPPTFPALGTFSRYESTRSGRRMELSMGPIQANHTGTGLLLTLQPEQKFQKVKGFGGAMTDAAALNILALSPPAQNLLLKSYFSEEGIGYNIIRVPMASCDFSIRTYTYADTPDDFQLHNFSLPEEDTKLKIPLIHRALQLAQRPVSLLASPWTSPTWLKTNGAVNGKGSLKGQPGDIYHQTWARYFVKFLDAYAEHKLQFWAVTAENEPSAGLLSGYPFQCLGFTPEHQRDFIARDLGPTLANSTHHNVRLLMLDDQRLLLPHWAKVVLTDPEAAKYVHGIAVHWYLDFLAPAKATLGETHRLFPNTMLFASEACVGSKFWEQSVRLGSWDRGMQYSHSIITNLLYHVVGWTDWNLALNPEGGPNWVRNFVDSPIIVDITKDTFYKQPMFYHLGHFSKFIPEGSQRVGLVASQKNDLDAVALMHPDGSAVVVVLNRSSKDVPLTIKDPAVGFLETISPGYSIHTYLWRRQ
Experimental: as §1
GCase activity was measured in a flat-bottomed 96-well plate. Compound solution (3 µL), 4.29 µg/µL leukocytes homogenate (7 µL), and substrate 4-methylumbelliferyl-β-D-glucoside (3.33 mM, 20 µL, Sigma–Aldrich Chemie Gmbh, Munich, Germany)) in citrate/phosphate buffer (0.1:0.2, M/M, pH 5.8) containing sodium taurocholate (0.3%) and Triton X-100 (0.15%) at 37 °C were incubated for 1 h. The reaction was stopped by addition of sodium carbonate (200 µL; 0.5 M, pH 10.7) containing Triton X-100 (0.0025%), and the fluorescence of 4-methylumbelliferone released by β-glucosidase activity was measured in SpectraMax M2 Microplate Reader (λex = 365 nm and λem = 435 nm; Molecular Devices LLC, San Jose, CA, US). Percentage GCase inhibition is given with respect to the control (without compound). Data are mean SD (n = 3). For compounds showing GCase inhibitory activity higher than 80% at 1 mM concentration, the IC50 values were determined by measuring the initial hydrolysis rate with 4-methylumbelliferyl-β-D-glucoside (3.33 mM). Data obtained were fitted by using the appropriate equation (for more details, see the Supplementary Materials).
IC50 for compounds 9, 10, 12 and 21 towards human lysosomal β-glucosidase The IC50 values of inhibitors against β-glucosidase were determined by measuring the initial hydrolysis rate with 4-methylumbelliferyl-β-D-glucoside (3.33 mM). Data obtained were fitted to the following equation using the Origin Microcal program. where Vi/Vo, represent the ratio between the activity measured in the presence of the inhibitor (Vi) and the activity of the control without the inhibitor (V0), “x” the inhibitor concentration, Max and Min, the maximal and minimal enzymatic activity observed, respectively.
Figure S48: IC of compound 9 towards GCase
Figure S49: IC50 of compound 10 towards GCase
(also on this page, place not known: Min x MinMax Vo Vi slope + […] […] […] […] […] […]+ −= 1 be tween (V i) (V 0), IC50) […]

[4] = target: T2, human lysosomal β-glucosidase (GCase); conditions: human leukocytes extracts, cited from earlier work; for GCase Inhibition (%): compounds 1 mM
[5] = target: T3, GCase in fibroblasts with the N370S/RecNcil mutation (Homo sapiens, UniProt P04062, N409S); set-up: method as in PMID 26376302; conditions: at 100 µM; cited from earlier work
T3 construct: Fibroblasts with the N370S/RecNcil mutation from patients with Gaucher disease; host or cells: human Gaucher patient fibroblasts, N370S/RecNciI
T3 sequence (P04062 40-536 N409S): T2 sequence (P04062 40-536) with N370S

[6] = target: T1, human lysosomal β-galactosidase (β-Gal); set-up: method as in PMID 32200326; conditions: compounds 1 mM; human leukocytes extracts; cited from earlier work

Q: Which “rescue of intracellular activity of mutant β-Gal in GM1-gangliosidosis patient fibroblasts” value [1] does the source give for `CCCCCCCCCN1C[C@H](O)[C@@H](O)[C@@H](O)[C@H]1CO` [compound 2, N-nonyl-DGJ] here?
A: able to rescue the intracellular activity of mutant β-Gal

Q: For `OC[C@H]1CNC[C@@H](O)[C@H]1O` [compound 3, 4-epi-isofagomine], which IC50 (human lysosomal β-Gal) is on record?
A: 1000 nM

Q: What does the source list for `CCCCC[C@H]1NC[C@@H](O)[C@@H](O)[C@H]1CO` [compound 4]?
A: IC50 (human lysosomal β-Gal): 10 nM; rescue of mutant β-Gal activity in fibroblasts from GM1-gangliosidosis patients [1]: able to rescue mutant β-Gal activity

Q: Which IC50 (human lysosomal β-Gal) does the source give for `CCCCCCCCC[C@H]1NC[C@@H](O)[C@@H](O)[C@H]1CO` [compound 5] here?
A: 0.4 nM

Q: What about the “rescue of mutant β-Gal activity in fibroblasts from GM1-gangliosidosis patients” value [1] of the same compound?
A: able to rescue mutant β-Gal activity

Q: Which “increase of β-Gal activity in GM1 gangliosidosis patient fibroblasts” value [1] does the source give for `O[C@@H]1[C@H](O)[C@H](O)CN[C@H]1C[C@H](O)c1ccccc1` [compound 6] here?
A: 2–6 fold

Q: Which “increase of β-Gal activity in GM1 gangliosidosis patient fibroblasts” value [1] does the source give for `CCCCCCCC[C@@H](O)C[C@@H]1NC[C@@H](O)[C@@H](O)[C@H]1O` [compound 7] here?
A: 2–6 fold

Q: With `O[C@@H]1CNC[C@@](O)(CCc2ccccc2)[C@@H]1O` [compound 11, (3S, 4R, 5R)-3,4,5-Trihydroxy-3-(2-Phenylethyl)-Piperidine] as the compound, how does the inhibition at 1000 µM [2] read?
A: 0%

Q: And the inhibition at 1000 µM [3]?
A: 36%

Q: With `CC[C@]1(O)CNC[C@@H](O)[C@H]1O` [compound 13, (3S, 4R, 5R)-3-Ethyl-3,4,5-Trihydroxypiperidine] as the compound, how does the inhibition at 1000 µM [2] read?
A: 3%

Q: What about the inhibition at 1000 µM [3] of the same compound?
A: 30%

Q: Which inhibition at 1000 µM [2] does the source give for `O[C@@H]1CNC[C@@](O)(CCc2ccsc2)[C@@H]1O` [compound 14, (3S, 4R, 5R)-3,4,5-Trihydroxy-3-((2-(3-Thienyl) Ethyl))-Piperidine] here?
A: 16%

Q: And the inhibition at 1000 µM [3]?
A: 9%

Q: And the melting point?
A: 73 to 75 °C

Q: For `CN(C)c1ccc(CC[C@]2(O)CNC[C@@H](O)[C@H]2O)cc1` [compound 15], which inhibition at 1000 µM [2] is on record?
A: 6%

Q: What about the inhibition at 1000 µM [3] of the same compound?
A: 6%

Q: With `O[C@@H]1CNC[C@@](O)(C#Cc2ccccc2)[C@@H]1O` [compound 32, (3S, 4R, 5R)-3,4,5-Trihydroxy-3-(Phenylethynyl)-Piperidine] as the compound, how does the “β-Gal Inhibition (%)” value [2] read?
A: 16%

Q: And the inhibition at 1000 µM [3]?
A: 25%

Q: What does the source list for `CCCCCCC#C[C@]1(O)CNC[C@@H](O)[C@H]1O` [compound 33, (3S, 4R, 5R)-3,4,5-Trihydroxy-3-(oct-1-yn-1-yl)-Piperidine]?
A: inhibition at 1000 µM [2]: 4%; inhibition at 1000 µM [3]: 65%

Q: What does the source list for `CCCCCCCCN[C@H]1CNC[C@@H](O)[C@H]1O` [compound 36]?
A: inhibition at 1000 µM [2]: 15%; GCase Inhibition (%) [4]: 93 ^c %; IC50 [4]: 40 ± 3 µM; rescue of GCase activity [5]: 1.5 fold

Q: What does the source list for `CCCCCCCC[C@H]1NC[C@@H](O)[C@@H](O)[C@@H]1O` [compound 37]?
A: GCase Inhibition (%) [4]: 100 ^d %; IC50 [4]: 29 ± 2 µM; β-Gal Inhibition (%) [6]: 14 ^d %

Q: For `CCCCCCCCCCCC[C@H]1NC[C@@H](O)[C@@H](O)[C@@H]1O` [compound 38], which “GCase Inhibition (%)” value [4] is on record?
A: 100 ^d %

Q: And the IC50 [4]?
A: 1.5 ± 0.1 µM

Q: And the “β-Gal Inhibition (%)” value [6]?
A: 5 ^d %

Q: What does the source list for `CCCCCCCC[C@@H]1NC[C@@H](O)[C@@H](O)[C@@H]1O` [compound 39]?
A: GCase Inhibition (%) [4]: 80 ^d %; IC50 [4]: 94 ± 5 µM; β-Gal Inhibition (%) [6]: 31 ^d %
